# Measured values from patent publication US20230074545A1, “TREATMENT OF CANCER WITH CDK12/13 INHIBITORS” (Kinnate Biopharma Inc., priority 2019, published 2023).
# Assays:
# Experiment in all cases: Radiometric kinase panel
# Format in all cases: biochemical
# [1] = biological target: T1, ACVRL1 (Homo sapiens, UniProt P37023)
# T1 construct: either as full-length or enzymatically active fragments; purchased ProQinase GmbH (Reaction Biology)
# Protocol: (§1) The compounds 1-5 (see Table 1) were assayed for kinase activity at ProQinase (ProQinase GmbH, Reaction Biology; Freiburg, Germany) using their commercially available radiometric kinase assay services. Briefly, the compounds were provided as solids and were dissolved to 1×10^−03 M/100% DMSO stock solutions on the day of assay. All protein kinases were provided by ProQinase and were expressed in Sf9 insect cells or in E. coli as recombinant GST-fusion proteins or His-tagged proteins, either as full-length or enzymatically active fragments. All kinases were produced from human cDNAs and purified by either GSH-affinity chromatography or immobilized metal. The purity of the protein kinases was examined by SDS-PAGE/Coomassie staining, the identity was checked by mass spectroscopy. A radiometric protein kinase assay (^33PanQinase® Activity Assay) was used for measuring the kinase activity of the protein kinase. All kinase assays were performed in 96-well FlashPlates™ from PerkinElmer (Boston, Mass., USA) in a 50 microliter reaction volume. The reaction cocktail was pipetted in four steps in the following order: 1) 25 microliter of assay buffer (standard buffer/[gamma-^33P]-ATP); 2) 10 microliter of ATP solution (in H2O); 3) 5 microliter of test compound (in 10% DMSO); 4) 10 microliter of enzyme/substrate mixture.
# (§2) Compound 4 was analyzed for selectivity against a panel of other kinases at ProQinase using their commercially available radiometric kinase assay services and the methods described in Example 1.
# [2] = biological target: T2, AKT3 (Homo sapiens, UniProt Q9Y243)
# T2 construct: purchased ProQinase GmbH (Reaction Biology)
# Protocol: as §1, §2
# [3] = biological target: T3, BMPR1B (Homo sapiens, UniProt O00238)
# T3 construct: either as full-length or enzymatically active fragments; purchased ProQinase GmbH (Reaction Biology)
# Protocol: as §1, §2
# [4] = biological target: T4, CDK19/CycC (Homo sapiens, UniProt Q9BWU1)
# T4 construct: either as full-length or enzymatically active fragments; purchased ProQinase GmbH (Reaction Biology); host or cells: Sf9 insect cells or E. coli (not specified per kinase)
# Protocol: as §1, §2
# [5] = biological target: T5, CDK3/CycC (Homo sapiens, UniProt Q00526)
# T5 construct: purchased ProQinase GmbH (Reaction Biology); host or cells: Sf9 insect cells or E. coli (not specified per kinase)
# Protocol: as §1, §2
# [6] = biological target: T6, CDK9/CycT1 (Homo sapiens, UniProt P50750)
# T6 construct: either as full-length or enzymatically active fragments; purchased ProQinase GmbH (Reaction Biology)
# Protocol: as §1, §2
# [7] = biological target: T7, CLK2 (Homo sapiens, UniProt P49760)
# T7 construct: purchased ProQinase GmbH (Reaction Biology)
# Protocol: as §1, §2
# [8] = biological target: T8, EGFR (Homo sapiens, UniProt P00533)
# T8 construct: either as full-length or enzymatically active fragments; purchased ProQinase GmbH (Reaction Biology)
# Protocol: as §1, §2
# [9] = biological target: T9, HCK (Homo sapiens, UniProt P08631)
# T9 construct: purchased ProQinase GmbH (Reaction Biology)
# Protocol: as §1, §2
# [10] = biological target: T10, JAK2 (Homo sapiens, UniProt O60674)
# T10 construct: either as full-length or enzymatically active fragments; purchased ProQinase GmbH (Reaction Biology)
# Protocol: as §1, §2
# [11] = biological target: T11, MARK2 (Homo sapiens, UniProt Q7KZI7)
# T11 construct: either as full-length or enzymatically active fragments; purchased ProQinase GmbH (Reaction Biology)
# Protocol: as §1, §2
# [12] = biological target: T12, MARK3 (Homo sapiens, UniProt P27448)
# T12 construct: either as full-length or enzymatically active fragments; purchased ProQinase GmbH (Reaction Biology); host or cells: Sf9 insect cells or E. coli
# Protocol: as §1, §2
# [13] = biological target: T13, MEK1 (Homo sapiens, UniProt Q02750)
# T13 construct: either as full-length or enzymatically active fragments; purchased ProQinase GmbH (Reaction Biology); host or cells: Sf9 insect cells or E. coli
# Protocol: as §1, §2
# [14] = biological target: T14, MEK2 (Homo sapiens, UniProt P36507)
# T14 construct: either as full-length or enzymatically active fragments; purchased ProQinase GmbH (Reaction Biology)
# Protocol: as §1, §2
# [15] = biological target: T15, MEKK3 (Homo sapiens, UniProt Q99759)
# T15 construct: purchased ProQinase GmbH (Reaction Biology); host or cells: Sf9 insect cells or E. coli (not specified per kinase)
# Protocol: as §1, §2
# [16] = biological target: T16, MKK4 (Homo sapiens, UniProt P45985)
# T16 construct: either as full-length or enzymatically active fragments; purchased ProQinase GmbH (Reaction Biology)
# Protocol: as §1, §2
# [17] = biological target: T17, PAK3 (Homo sapiens, UniProt O75914)
# T17 construct: purchased ProQinase GmbH (Reaction Biology); host or cells: Sf9 insect cells or E. coli (not specified per kinase)
# Protocol: as §1, §2
# [18] = biological target: T18, PDGFRalpha (Homo sapiens, UniProt P16234)
# T18 construct: either as full-length or enzymatically active fragments; purchased ProQinase GmbH (Reaction Biology)
# Protocol: as §1, §2
# [19] = biological target: T19, PLK1 (Homo sapiens, UniProt P53350)
# T19 construct: either as full-length or enzymatically active fragments; purchased ProQinase GmbH (Reaction Biology)
# Protocol: as §1, §2
# [20] = biological target: T20, PRKG1 (Homo sapiens, UniProt Q13976)
# T20 construct: either as full-length or enzymatically active fragments; purchased ProQinase GmbH (Reaction Biology)
# Protocol: as §1, §2
# [21] = biological target: T21, PRKG2 (Homo sapiens, UniProt Q13237)
# T21 construct: either as full-length or enzymatically active fragments; purchased ProQinase GmbH (Reaction Biology)
# Protocol: as §1, §2
# [22] = biological target: T22, RAF1 YDYD (Homo sapiens, UniProt P04049, Y340D/Y341D)
# T22 construct: either as full-length or enzymatically active fragments; purchased ProQinase GmbH (Reaction Biology); host or cells: Sf9 insect cells or E. coli (not specified per kinase)
# Protocol: as §1, §2
# [23] = biological target: T23, RIPK4 (Homo sapiens, UniProt P57078)
# T23 construct: either as full-length or enzymatically active fragments; purchased ProQinase GmbH (Reaction Biology)
# Protocol: as §1, §2
# [24] = biological target: T24, ROS (Homo sapiens, UniProt P08922)
# T24 construct: either as full-length or enzymatically active fragments; purchased ProQinase GmbH (Reaction Biology)
# Protocol: as §1, §2
# [25] = biological target: T25, RPS6KA5 (Homo sapiens, UniProt O75582)
# T25 construct: either as full-length or enzymatically active fragments; purchased ProQinase GmbH (Reaction Biology); host or cells: Sf9 insect cells or E. coli (not specified per kinase)
# Protocol: as §1, §2
# [26] = biological target: T26, STK23 (Homo sapiens, UniProt Q9UPE1)
# T26 construct: either as full-length or enzymatically active fragments; purchased ProQinase GmbH (Reaction Biology)
# Protocol: as §1, §2
# [27] = biological target: T27, STK25 (Homo sapiens, UniProt O00506)
# T27 construct: either as full-length or enzymatically active fragments; purchased ProQinase GmbH (Reaction Biology)
# Protocol: as §1, §2
# [28] = biological target: T28, TGFBR1 (Homo sapiens, UniProt P36897)
# T28 construct: either as full-length or enzymatically active fragments; purchased ProQinase GmbH (Reaction Biology)
# Protocol: as §1, §2
# [29] = biological target: T29, TTBK2 (Homo sapiens, UniProt Q6IQ55)
# T29 construct: either as full-length or enzymatically active fragments; purchased ProQinase GmbH (Reaction Biology)
# Protocol: as §1, §2
# [30] = biological target: T30, ULK2 (Homo sapiens, UniProt Q8IYT8)
# T30 construct: either as full-length or enzymatically active fragments; purchased ProQinase GmbH (Reaction Biology)
# Protocol: as §1, §2
# T27 sequence (O00506 whole entry, the tested form may be a part): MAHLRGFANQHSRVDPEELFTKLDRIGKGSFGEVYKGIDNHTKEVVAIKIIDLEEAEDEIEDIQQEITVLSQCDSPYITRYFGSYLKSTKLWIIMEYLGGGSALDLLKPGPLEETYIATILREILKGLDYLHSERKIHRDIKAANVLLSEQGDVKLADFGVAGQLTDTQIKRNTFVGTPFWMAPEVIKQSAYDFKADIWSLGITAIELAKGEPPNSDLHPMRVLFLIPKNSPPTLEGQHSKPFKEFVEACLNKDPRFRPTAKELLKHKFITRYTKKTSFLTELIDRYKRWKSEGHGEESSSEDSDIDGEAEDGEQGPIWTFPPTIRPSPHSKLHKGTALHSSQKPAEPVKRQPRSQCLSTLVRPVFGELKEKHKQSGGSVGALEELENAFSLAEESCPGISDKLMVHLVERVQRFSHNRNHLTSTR
# T21 sequence (Q13237 whole entry, the tested form may be a part): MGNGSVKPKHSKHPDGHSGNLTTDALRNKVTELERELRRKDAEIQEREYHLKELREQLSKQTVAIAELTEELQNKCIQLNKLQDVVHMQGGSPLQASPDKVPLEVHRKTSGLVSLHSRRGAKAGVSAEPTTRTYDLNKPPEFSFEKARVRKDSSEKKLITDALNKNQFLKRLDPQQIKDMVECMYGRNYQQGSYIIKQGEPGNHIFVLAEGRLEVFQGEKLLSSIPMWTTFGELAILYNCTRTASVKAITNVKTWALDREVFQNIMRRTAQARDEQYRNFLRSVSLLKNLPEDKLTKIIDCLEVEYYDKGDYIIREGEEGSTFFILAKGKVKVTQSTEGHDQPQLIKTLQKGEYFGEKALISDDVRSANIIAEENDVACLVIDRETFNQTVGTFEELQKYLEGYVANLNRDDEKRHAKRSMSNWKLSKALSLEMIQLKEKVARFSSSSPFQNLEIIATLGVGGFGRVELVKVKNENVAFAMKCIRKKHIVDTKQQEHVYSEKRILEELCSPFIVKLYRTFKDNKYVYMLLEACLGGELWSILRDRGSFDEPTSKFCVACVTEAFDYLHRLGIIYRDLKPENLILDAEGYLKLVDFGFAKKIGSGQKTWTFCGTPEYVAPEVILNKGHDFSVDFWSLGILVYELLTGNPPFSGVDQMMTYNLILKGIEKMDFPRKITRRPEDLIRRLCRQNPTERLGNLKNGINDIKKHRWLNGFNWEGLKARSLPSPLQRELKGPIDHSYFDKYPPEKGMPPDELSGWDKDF
# T7 sequence (P49760 whole entry): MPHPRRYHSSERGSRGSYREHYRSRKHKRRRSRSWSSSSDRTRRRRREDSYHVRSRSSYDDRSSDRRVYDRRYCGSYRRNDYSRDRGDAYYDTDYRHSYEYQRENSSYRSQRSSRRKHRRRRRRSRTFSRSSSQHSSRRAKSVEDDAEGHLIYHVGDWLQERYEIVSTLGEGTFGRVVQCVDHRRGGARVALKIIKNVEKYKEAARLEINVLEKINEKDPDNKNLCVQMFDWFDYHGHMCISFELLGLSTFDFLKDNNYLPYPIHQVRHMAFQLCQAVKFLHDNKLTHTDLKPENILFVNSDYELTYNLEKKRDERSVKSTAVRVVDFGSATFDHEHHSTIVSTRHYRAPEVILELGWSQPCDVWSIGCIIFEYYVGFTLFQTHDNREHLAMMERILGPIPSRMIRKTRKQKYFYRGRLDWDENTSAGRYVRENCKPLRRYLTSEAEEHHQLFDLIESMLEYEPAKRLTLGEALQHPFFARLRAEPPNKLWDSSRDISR
# T6 sequence (P50750 whole entry, the tested form may be a part): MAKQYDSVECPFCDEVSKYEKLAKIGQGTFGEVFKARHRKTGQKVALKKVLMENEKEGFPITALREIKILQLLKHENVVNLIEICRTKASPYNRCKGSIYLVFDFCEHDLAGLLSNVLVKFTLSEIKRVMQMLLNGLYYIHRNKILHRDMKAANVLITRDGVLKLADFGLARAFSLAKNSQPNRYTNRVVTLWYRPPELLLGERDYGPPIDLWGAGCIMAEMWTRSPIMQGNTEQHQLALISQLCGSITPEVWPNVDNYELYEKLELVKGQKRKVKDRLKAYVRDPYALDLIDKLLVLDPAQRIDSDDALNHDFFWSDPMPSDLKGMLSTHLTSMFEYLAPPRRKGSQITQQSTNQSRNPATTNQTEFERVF
# T6 sequence (O60563 whole entry partner, the tested form may be a part): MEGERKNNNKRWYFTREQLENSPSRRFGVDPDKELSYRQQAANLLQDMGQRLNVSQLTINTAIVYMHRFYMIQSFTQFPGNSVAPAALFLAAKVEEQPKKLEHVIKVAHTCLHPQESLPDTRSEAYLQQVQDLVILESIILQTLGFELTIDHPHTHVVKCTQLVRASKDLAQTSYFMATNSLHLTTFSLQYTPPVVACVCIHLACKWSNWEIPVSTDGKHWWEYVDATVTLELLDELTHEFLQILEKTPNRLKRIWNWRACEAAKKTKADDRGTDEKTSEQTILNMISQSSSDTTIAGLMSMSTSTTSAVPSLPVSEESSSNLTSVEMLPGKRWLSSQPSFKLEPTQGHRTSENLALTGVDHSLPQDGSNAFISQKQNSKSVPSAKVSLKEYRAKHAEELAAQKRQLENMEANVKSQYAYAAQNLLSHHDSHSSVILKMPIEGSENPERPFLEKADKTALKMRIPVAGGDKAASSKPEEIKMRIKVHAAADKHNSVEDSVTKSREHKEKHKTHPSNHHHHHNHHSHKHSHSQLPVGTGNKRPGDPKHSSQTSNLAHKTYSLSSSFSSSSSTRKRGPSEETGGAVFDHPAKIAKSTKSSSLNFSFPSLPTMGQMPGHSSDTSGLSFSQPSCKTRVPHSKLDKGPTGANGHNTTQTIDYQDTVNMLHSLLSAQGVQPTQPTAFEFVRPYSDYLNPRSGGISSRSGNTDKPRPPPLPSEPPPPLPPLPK
# T1 sequence (P37023 22-503): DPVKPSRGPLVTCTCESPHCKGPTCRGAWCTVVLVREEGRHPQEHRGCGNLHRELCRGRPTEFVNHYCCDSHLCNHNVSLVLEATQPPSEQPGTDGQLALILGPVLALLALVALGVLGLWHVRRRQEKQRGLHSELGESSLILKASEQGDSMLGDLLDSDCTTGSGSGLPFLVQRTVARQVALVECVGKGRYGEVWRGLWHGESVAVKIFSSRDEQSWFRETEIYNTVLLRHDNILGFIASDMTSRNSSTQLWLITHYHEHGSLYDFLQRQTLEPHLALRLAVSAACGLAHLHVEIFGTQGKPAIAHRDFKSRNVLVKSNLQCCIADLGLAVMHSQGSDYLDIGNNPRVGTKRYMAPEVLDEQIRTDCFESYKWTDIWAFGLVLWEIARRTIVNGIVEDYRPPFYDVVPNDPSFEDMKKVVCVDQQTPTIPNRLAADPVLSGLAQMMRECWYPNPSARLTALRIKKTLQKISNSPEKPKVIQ
# T17 sequence (O75914 whole entry): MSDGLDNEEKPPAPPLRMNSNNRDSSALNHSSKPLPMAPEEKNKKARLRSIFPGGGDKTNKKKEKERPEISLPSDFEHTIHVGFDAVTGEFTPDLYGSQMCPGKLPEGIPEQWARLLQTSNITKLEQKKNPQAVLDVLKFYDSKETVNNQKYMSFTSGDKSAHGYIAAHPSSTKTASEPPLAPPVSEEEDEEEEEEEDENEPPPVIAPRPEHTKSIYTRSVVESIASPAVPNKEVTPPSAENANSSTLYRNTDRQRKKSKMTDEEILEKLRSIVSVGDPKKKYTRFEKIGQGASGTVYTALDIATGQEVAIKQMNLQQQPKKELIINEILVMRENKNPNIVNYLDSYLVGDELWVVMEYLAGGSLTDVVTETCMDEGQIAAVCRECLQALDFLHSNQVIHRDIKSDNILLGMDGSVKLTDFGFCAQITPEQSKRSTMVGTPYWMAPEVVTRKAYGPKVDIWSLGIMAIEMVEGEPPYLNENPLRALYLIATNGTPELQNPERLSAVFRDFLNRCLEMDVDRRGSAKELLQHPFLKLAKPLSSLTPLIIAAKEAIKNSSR
# T16 sequence (P45985 whole entry, the tested form may be a part): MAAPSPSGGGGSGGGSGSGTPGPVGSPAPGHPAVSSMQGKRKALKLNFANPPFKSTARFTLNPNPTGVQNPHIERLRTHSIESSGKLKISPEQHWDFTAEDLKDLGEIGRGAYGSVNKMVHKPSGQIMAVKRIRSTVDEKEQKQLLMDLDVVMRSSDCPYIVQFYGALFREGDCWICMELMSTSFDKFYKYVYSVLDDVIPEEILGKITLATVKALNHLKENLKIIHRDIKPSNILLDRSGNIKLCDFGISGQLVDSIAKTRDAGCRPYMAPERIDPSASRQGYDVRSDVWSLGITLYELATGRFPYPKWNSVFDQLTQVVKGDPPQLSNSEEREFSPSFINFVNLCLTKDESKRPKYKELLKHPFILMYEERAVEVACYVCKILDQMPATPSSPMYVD
# T9 sequence (P08631 whole entry): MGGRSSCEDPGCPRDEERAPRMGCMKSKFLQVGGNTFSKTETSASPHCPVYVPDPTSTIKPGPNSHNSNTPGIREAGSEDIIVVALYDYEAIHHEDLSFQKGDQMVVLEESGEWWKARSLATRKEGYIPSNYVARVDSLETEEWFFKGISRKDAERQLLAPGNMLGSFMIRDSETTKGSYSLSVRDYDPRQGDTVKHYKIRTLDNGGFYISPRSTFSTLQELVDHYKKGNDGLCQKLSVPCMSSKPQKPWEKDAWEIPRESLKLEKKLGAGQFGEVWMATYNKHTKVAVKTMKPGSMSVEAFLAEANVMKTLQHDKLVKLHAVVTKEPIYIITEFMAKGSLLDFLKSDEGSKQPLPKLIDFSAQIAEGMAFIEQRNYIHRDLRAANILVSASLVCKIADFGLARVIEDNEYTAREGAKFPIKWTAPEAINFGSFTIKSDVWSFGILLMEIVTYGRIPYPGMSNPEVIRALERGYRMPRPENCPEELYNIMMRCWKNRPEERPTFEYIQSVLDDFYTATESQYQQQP
compound,measurement,setting,value
"C=CC(=O)Nc1ccc(C(=O)N2CC[C@@H](Nc3ncc(C#N)cn3)C2)cc1 [Compound 4, (R)-N-(4-(3-((5-cyanopyrimidin-2-yl)amino)pyrrolidine-1-carbonyl)phenyl)acrylamide]",inhibition at 1 µM,[1],3%
same,inhibition at 1 µM,[2],-2%
same,inhibition at 1 µM,[3],6%
same,inhibition at 1 µM,[4],10%
same,inhibition at 1 µM,[5],1%
same,inhibition at 1 µM,[6],27%
same,inhibition at 1 µM,[7],-2%
same,inhibition at 1 µM,[8],7%
same,inhibition at 1 µM,[9],0%
same,inhibition at 1 µM,[10],-6%
same,inhibition at 1 µM,[11],2%
same,inhibition at 1 µM,[12],-17%
same,inhibition at 1 µM,[13],13%
same,inhibition at 1 µM,[14],3%
same,inhibition at 1 µM,[15],1%
same,inhibition at 1 µM,[16],4%
same,inhibition at 1 µM,[17],1%
same,inhibition at 1 µM,[18],7%
same,inhibition at 1 µM,[19],7%
same,inhibition at 1 µM,[20],-12%
same,inhibition at 1 µM,[21],-6%
same,inhibition at 1 µM,[22],9%
same,inhibition at 1 µM,[23],-3%
same,inhibition at 1 µM,[24],2%
same,inhibition at 1 µM,[25],10%
same,inhibition at 1 µM,[26],7%
same,inhibition at 1 µM,[27],7%
same,inhibition at 1 µM,[28],7%
same,inhibition at 1 µM,[29],3%
same,inhibition at 1 µM,[30],3%
